The results in this text go back to ChEMBL document CHEMBL1122475, “Antidepressant activity of 5-aryl-2,3,5,6-tetrahydroimidazo[2,1-a]isoquinolin-5-ols” (1983).

Test [1] has as its system Mus musculus. The experiment in a line: Dose at which 50% convulsions occurred in mice (ip). The format is functional.
Test [2] concerns Mus musculus. In words: Dose required to induce hyperactivity in mice (ip); not active at a dose of 12.5 mg/kg. Details: dose 12.5 mg/kg. The format is functional, organism-based.
In test [3] the test system is Mus musculus. In words: Dose required to induce hypersensitivity in mice (ip). The format is functional.
Test [4] deals with Mus musculus. The experiment in a line: Minimal dose required to cause aggressiveness in mice after ip administration; not active at a dose of 12.5 mg/kg. It is filed as functional, organism-based. Set-up: dose 12.5 mg/kg.
In test [5] the test system is Mus musculus. In words: Minimal dose required to cause piloerection in mice after ip administration. It is filed as functional.
Test [6] deals with Mus musculus. The experiment in a line: Minimal dose required to induce hyperaesthesia in mice (ip). It is filed as functional.
Test [7] relates to Mus musculus. In words: Minimal dose required to induce in mice exophthalmus (ip). The format is functional.
The subject of test [8] is Mus musculus. In words: Minimal dose required to induce in mice straub tail (ip). It is filed as functional.
For test [9], the system named is Mus musculus. In words: Inhibition of reserpine (5 mg/kg i.p.) induced hypothermia in mice 2 hr after i.p. administration. It is filed as functional. To be noted: ip.
The test system of test [10] is Mus musculus. In words: Lethal dose by i.p. administration. The format is functional. To be noted: ip.
The test system of test [11] is Mus musculus. In words: Inhibition of reserpine (5 mg/kg i.p.) induced hypothermia in mice 4 hr after i.p. administration. The format is functional. To be noted: ip.
Test [12] has as its system Mus musculus. The experiment in a line: Dose required to induce hyperactivity in mice (ip). It is filed as functional.
In test [13] the test system is Mus musculus. The experiment in a line: Dose required to induce hypersensitivity in mice (ip); weak active at a dose of 12.5 mg/kg. It is filed as functional, organism-based. Set-up: dose 12.5 mg/kg.
Test [14] has as its system Mus musculus. In words: Minimal dose required to cause aggressiveness in mice after ip administration. It is filed as functional.
The subject of test [15] is Mus musculus. In words: Minimal dose required to cause piloerection in mice after ip administration; not active at a dose of 12.5 mg/kg. It is filed as functional, organism-based. Set-up: dose 12.5 mg/kg.
Test [16] relates to Felis catus. The experiment in a line: Compound tested to induce facilitation of monosynaptic spikes in spinal ventral root by stimulation of the dorsal root (DR-VR) after iv administration in cats; range is 0.1-0.3. The format is functional.
Test [17] relates to Mus musculus. The experiment in a line: Dose required to induce hyperactivity in mice (ip); weak at a dose of 150.0 mg/kg. It is filed as functional, organism-based. Set-up: dose 150 mg/kg.
The subject of test [18] is Mus musculus. The experiment in a line: Minimal dose required to cause aggressiveness in mice after ip administration; not active at a dose of 150.0 mg/kg. Details: dose 150 mg/kg. The format is functional, organism-based.
In test [19] the test system is Mus musculus. In words: Minimal dose required to cause piloerection in mice after ip administration; not active at a dose of 150.0 mg/kg. It is filed as functional, organism-based. Set-up: dose 150 mg/kg.
The test system of test [20] is Mus musculus. The experiment in a line: Minimal dose required to induce hyperaesthesia in mice (ip); not active at a dose of 150.0 mg/kg. The format is functional, organism-based. Details: dose 150 mg/kg.
The subject of test [21] is Mus musculus. In words: Minimal dose required to induce in mice exophthalmus (ip); not active at a dose of 150.0 mg/kg. It is filed as functional, organism-based. Details: dose 150 mg/kg.
For test [22], the system named is Mus musculus. In words: Minimal dose required to induce in mice straub tail (ip); not active at a dose of 150.0 mg/kg. Set-up: dose 150 mg/kg. The format is functional, organism-based.

SMILES strings stand for the structures. Activity calls are given as the source filed them. The rule behind the calls is not given here.

Compound `OC1(c2ccc3c(c2)OCO3)Cc2ccccc2C2=NCCN21` (configuration not stated) registered a CD50 in test [1] of 18.8 mg/kg. Further, the ED50 – broadly, the midpoint of the dose-response relation – in test [2] was “inactive”. Moreover, the ED50 was 12.5 mg/kg in test [3], 0.1 mg/kg in test [9] and 0.5 mg/kg in [11]. Further, the MD entry in test [4] is “inactive”. Moreover, the MD in test [5] is 9.4 mg/kg; in [6], 4.7 mg/kg; in test [7] it was 4.7 mg/kg; in test [8], 4.7 mg/kg. Besides, the LD50 (commonly the dose at which mortality reaches 50%) in test [10] worked out at 10.2 mg/kg.
In the case of `OC1(c2cccc(F)c2)Cc2ccccc2C2=NCCN21` (configuration not stated), the 50% effective dose (ED50) in [12] was 12.5 mg/kg; in test [13], “Weak”; in test [9], 0.7 mg/kg; in [11], 5.2 mg/kg. The MD in test [14], in test [6], in test [7] and in test [8] was 9.4 mg/kg in each case. Besides, the MD entry in [15] was “inactive”. The LD50 in [10] came to 21 mg/kg.
Turning to `OC1(c2ccc(Cl)c(Cl)c2)Cc2ccccc2C2=NCCN21` (configuration not stated), in test [16], the Activity was found to be 0.1 mg/kg. The ED50 entry in test [17] was “Weak”; in test [3] it was 150 mg/kg; in test [9] it was 1.6 mg/kg; in [11] it was > 25.6 mg/kg. Moreover, the MD entry in [18], in test [19], in [20], in test [21] and in test [22] was “inactive” throughout. Besides, in test [10], the LD50 came to 150 mg/kg.
